{"source": "patent US20120214870A1", "about": "“METHODS FOR DIAGNOSIS AND TREATMENT OF CHRONIC FATIGUE SYNDROME” (UNIVERSITY OF SOUTH AUSTRALIA, priority 2009, published 2012)", "origin": "cited, not measured here", "key": {"CPT-I": {"tested_on": "CPT-I", "conditions": "Yoon et al., 2003; Amengual et al., 2008"}}, "note": "Entries after “also recorded” stand apart in the source; their conditions may differ."}
{"smiles": "CC(=O)O[C@H](CC(=O)[O-])C[N+](C)(C)C", "note": "[C2, acetyl-L-carnitine]", "values": [{"measurement": "mental fatigue and attention concentration", "setting": "CFS patients; supplementation (Vermeulen & Scholte, 2004; Malaguarnera et al. 2008)", "result": "significant improvements"}]}
{"smiles": "CCC(=O)O[C@H](CC(=O)[O-])C[N+](C)(C)C", "note": "[C3, propionyl-L-carnitine]", "values": [{"measurement": "general and physical fatigue", "setting": "CFS patients; administration (Vermeulen & Scholte, 2004)", "result": "significant improvements"}]}
{"smiles": "C[N+](C)(C)C[C@H](O)CC(=O)[O-]", "note": "[LC, L-carnitine]", "values": [{"measurement": "CPT-I expression or activity", "setting": "CPT-I", "result": "increase; also recorded: upregulate"}, {"measurement": "fatigue severity in CFS patients", "setting": "CFS patients; after 2 months of supplementation (Plioplys and Plioplys, 1997)", "result": "significantly reduce"}]}
{"smiles": "CC1=C(/C=C/C(C)=C/C=C/C(C)=C/C(=O)O)C(C)(C)CCC1", "note": "[all-trans retinoic acid, reference compound]", "values": [{"measurement": "CPT-I expression or activity", "setting": "CPT-I", "result": "upregulate"}]}
